# From patent US20030139431A1 (priority 2001, published 2003)
# Key:
# rNPFF1 [1] = biological target: T1, rNPFF1 (Rattus norvegicus, UniProt Q9EP86); assay: Binding affinity at cloned recombinant rat NPFF1 receptor
# T1 construct: expressed in transfected cells
# hNPFF2 [2] = biological target: T2, hNPFF2 (Homo sapiens, UniProt Q9Y5X5); assay: Binding affinity at cloned recombinant human NPFF2 receptor
# T2 construct: expressed in transfected cells
# rNPFF2 [3] = biological target: T3, rNPFF2 (Rattus norvegicus, UniProt Q9EQD2); assay: Binding affinity at cloned recombinant rat NPFF2 receptor
# T3 construct: expressed in transfected cells
# hNPFF1 [4] = biological target: T4, hNPFF1 (Homo sapiens, UniProt Q9GZQ6); assay: Binding affinity at cloned recombinant human NPFF1 receptor
# T4 construct: expressed in transfected cells
# rNPFF1 [5] = biological target: T1, rNPFF1; assay: Functional assay (agonist potency, intrinsic activity) at cloned rat NPFF1 receptor; type: cell-based; settings: for rNPFF1 IA (intrinsic activity): percent of maximum response elicited by neuropeptide FF, rat NPFF1; for EC50: recombinant rat NPFF1
# Description: (§1) Intrinsic activity of a compound is measured as the percent of maximum response.
# rNPFF2 [6] = biological target: T3, rNPFF2; assay: Functional assay (agonist potency, intrinsic activity) at cloned rat NPFF2 receptor; type: cell-based; settings: for rNPFF2 IA (intrinsic activity): percent of maximum response elicited by neuropeptide FF, rat NPFF2; for EC50: recombinant rat NPFF2
# Description: as §1
# hNPFF2 [7] = biological target: T2, hNPFF2; assay: Functional assay (agonist potency, intrinsic activity) at cloned human NPFF2 receptor; type: cell-based; settings: for hNPFF2 IA (intrinsic activity): percent of maximum response elicited by neuropeptide FF, human NPFF2; for EC50: recombinant human NPFF2
# Description: as §1
# hNPFF1 [8] = biological target: T4, hNPFF1; assay: Functional assay (agonist potency, intrinsic activity) at cloned human NPFF1 receptor; type: cell-based; settings: for hNPFF1 IA (intrinsic activity): percent of maximum response elicited by neuropeptide FF, human NPFF1; for EC50: recombinant human NPFF1
# Description: as §1
# [9] = rat cloned NPFF receptors, based on IA and Ki
# T3 sequence (Q9EQD2 whole entry): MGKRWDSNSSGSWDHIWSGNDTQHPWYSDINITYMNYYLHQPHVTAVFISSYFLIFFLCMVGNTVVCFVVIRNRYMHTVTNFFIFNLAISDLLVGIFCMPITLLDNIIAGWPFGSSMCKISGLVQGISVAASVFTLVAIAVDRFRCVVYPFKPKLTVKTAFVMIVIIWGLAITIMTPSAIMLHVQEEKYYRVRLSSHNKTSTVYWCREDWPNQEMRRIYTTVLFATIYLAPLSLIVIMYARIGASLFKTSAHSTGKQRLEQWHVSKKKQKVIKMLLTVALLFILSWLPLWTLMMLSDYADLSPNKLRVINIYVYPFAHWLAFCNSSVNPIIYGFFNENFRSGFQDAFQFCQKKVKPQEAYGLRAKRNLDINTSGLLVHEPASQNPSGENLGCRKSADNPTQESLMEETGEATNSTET
# T1 sequence (Q9EP86 whole entry): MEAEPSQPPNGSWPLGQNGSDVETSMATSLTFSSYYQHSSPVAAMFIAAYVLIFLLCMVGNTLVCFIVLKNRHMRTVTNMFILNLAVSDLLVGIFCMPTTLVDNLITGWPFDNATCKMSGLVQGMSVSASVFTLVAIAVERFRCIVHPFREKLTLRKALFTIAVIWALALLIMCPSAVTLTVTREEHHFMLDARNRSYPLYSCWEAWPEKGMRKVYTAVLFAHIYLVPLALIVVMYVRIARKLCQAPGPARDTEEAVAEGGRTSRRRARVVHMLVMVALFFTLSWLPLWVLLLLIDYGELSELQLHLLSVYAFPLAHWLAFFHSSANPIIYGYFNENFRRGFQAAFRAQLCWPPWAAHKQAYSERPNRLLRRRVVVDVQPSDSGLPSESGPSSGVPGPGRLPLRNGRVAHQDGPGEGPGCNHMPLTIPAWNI
# T2 sequence (Q9Y5X5 103-522): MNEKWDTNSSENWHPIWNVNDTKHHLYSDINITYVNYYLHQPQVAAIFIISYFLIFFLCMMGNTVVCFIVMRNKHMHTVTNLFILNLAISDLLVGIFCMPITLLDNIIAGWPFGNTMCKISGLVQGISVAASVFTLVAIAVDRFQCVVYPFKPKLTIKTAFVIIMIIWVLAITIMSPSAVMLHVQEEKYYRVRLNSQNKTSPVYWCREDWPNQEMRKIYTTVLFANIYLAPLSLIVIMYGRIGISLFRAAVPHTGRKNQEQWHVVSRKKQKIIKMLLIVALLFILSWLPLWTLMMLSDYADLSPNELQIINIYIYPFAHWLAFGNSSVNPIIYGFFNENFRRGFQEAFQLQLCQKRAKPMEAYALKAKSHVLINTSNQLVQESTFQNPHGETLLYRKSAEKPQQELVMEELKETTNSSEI
# T4 sequence (Q9GZQ6 whole entry): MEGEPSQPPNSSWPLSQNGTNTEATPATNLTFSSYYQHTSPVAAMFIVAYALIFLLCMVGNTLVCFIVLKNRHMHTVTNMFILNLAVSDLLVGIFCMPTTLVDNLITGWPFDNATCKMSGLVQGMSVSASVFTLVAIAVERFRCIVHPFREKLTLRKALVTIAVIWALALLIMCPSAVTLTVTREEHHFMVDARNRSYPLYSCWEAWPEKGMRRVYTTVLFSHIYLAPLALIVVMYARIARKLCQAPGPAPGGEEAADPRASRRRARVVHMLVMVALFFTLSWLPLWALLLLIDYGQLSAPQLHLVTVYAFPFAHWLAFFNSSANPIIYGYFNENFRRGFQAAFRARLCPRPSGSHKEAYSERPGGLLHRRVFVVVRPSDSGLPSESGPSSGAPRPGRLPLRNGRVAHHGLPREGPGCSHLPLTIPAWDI
SMILES,Ki (rNPFF1 [1]) [nM],Ki (hNPFF2 [2]) [nM],Ki (rNPFF2 [3]) [nM],Ki (hNPFF1 [4]) [nM],rNPFF1 IA (intrinsic activity) (rNPFF1 [5]),EC50 (rNPFF1 [5]) [µM],rNPFF2 IA (intrinsic activity) (rNPFF2 [6]),EC50 (rNPFF2 [6]) [nM],hNPFF2 IA (intrinsic activity) (hNPFF2 [7]),EC50 (hNPFF2 [7]) [nM],hNPFF1 IA (intrinsic activity) (hNPFF1 [8]),EC50 (hNPFF1 [8]) [µM],classification as agonist or antagonist at NPFF1 (rNPFF1 [5]; [9]),classification as agonist or antagonist at NPFF2 (rNPFF2 [6]; [9])
"Cc1nc(NC(=N)N)nc2ccccc12 [Compound 1001, N-(4-methyl-2-quinazolinyl)guanidine]",202,2040,> 10000,240,Inactive,> 10,16% NPFF,3080,–,–,–,–,–,–
"Cc1cc(NC(=N)N)nc2ccccc12 [Compound 6001, N-(4-methyl-2-quinolinyl)guanidine]",11,374,433,23,Inactive,> 10,Inactive,> 10000,Inactive,> 10000,Inactive,> 10,–,–
"Cc1cc(NC(=N)N)nc2c(C)cccc12 [Compound 6002, N-(4,8-dimethyl-2-quinolinyl)guanidine]",91,952,883,157,Inactive,> 10,Inactive,> 10000,–,–,–,–,–,–
"Cc1nc(NC(=N)N)nc2ccc3ccccc3c12 [Compound 1007, N-(1-methylbenzo[f]quinazolin-3-yl)guanidine]",146,260,699,53,Inactive,> 10,66% NPFF,1300,–,–,–,–,–,–
"CCCCCc1ccc2nc(NC(=N)N)nc(C)c2c1 [Compound 2001, N-(4-methyl-6-pentyl-2-quinazolinyl)guanidine]",8,376,221,50,71% NPFF,0.242,103% NPFF,97,84% NPFF,625,Inactive,–,–,–
"Cc1nc(NC(=N)N)nc2cc(-c3ccccc3)ccc12 [Compound 1023, N-(4-methyl-7-phenyl-2-quinazolinyl)guanidine]",4,2920,1020,228,Inactive,> 10,35% NPFF,3160,43% NPFF,4110,Inactive,> 10,–,–
"Cc1ccc2c(C)nc(NC(=N)N)nc2c1 [Compound 3001, N-(4,7-dimethyl-2-quinazolinyl)guanidine]",50,1720,1220,46,–,–,–,–,Inactive,> 10000,Inactive,> 10,antagonists,antagonists
"Cc1cc(C)c2c(C)cc(NC(=N)N)nc2c1 [Compound 4008, N-(4,5,7-trimethyl-2-quinolinyl)guanidine]",64,514,882,82,Inactive,> 10,65% NPFF,411,–,–,–,–,–,–
"Cc1ccc2nc(NC(=N)N)cc(C)c2c1 [Compound 4001, N-(4,6-dimethyl-2-quinolinyl)guanidine]",30,150,556,21,Inactive,> 10,68% NPFF,404,–,–,–,–,–,–
"CCCCCCc1ccc2nc(NC(=N)N)nc(C)c2c1 [Compound 2005, N-(6-hexyl-4-methyl-2-quinazolinyl)guanidine]",88,–,268,–,56% NPFF,0.137,81% NPFF,105,–,–,–,–,–,–

# Further compounds by falling Ki (rNPFF1 [1]), results first:
Ki (rNPFF1 [1]) [nM],Ki (hNPFF2 [2]) [nM],Ki (rNPFF2 [3]) [nM],Ki (hNPFF1 [4]) [nM],rNPFF1 IA (intrinsic activity) (rNPFF1 [5]),EC50 (rNPFF1 [5]) [µM],rNPFF2 IA (intrinsic activity) (rNPFF2 [6]),EC50 (rNPFF2 [6]) [nM],hNPFF2 IA (intrinsic activity) (hNPFF2 [7]),EC50 (hNPFF2 [7]) [nM],hNPFF1 IA (intrinsic activity) (hNPFF1 [8]),EC50 (hNPFF1 [8]) [µM],classification as agonist or antagonist at NPFF1 (rNPFF1 [5]; [9]),classification as agonist or antagonist at NPFF2 (rNPFF2 [6]; [9]),SMILES
802,–,> 10000,–,Inactive,> 10,19% NPFF,> 10000,–,–,–,–,–,–,"Cc1nc(NC(=N)N)nc2ccc(Br)cc12 [Compound 1026, N-(6-bromo-4-methyl-2-quinazolinyl)guanidine]"
565,–,2500,–,Inactive,> 10,74% NPFF,3160,–,–,–,–,–,–,"COc1cc2c(C)nc(NC(=N)N)nc2cc1C [Compound 1016, N-(6-methoxy-4,7-dimethyl-2-quinazolinyl)guanidine]"
532,1170,4420,152,27% NPFF,0.44,57% NPFF,9990,45% NPFF,3160,Inactive,> 10,–,–,"CCCCCCc1ccc2nc(NC(=N)N)cc(C)c2c1 [Compound 5003, N-(6-hexyl-4-methyl-2-quinolinyl)guanidine]"
371,–,195,–,56% NPFF,0.171,89% NPFF,49,–,–,–,–,–,–,"Cc1nc(NC(=N)N)nc2ccc(Cc3ccccc3)cc12 [Compound 2003, N-(6-benzyl-4-methyl-2-quinazolinyl)guanidine]"
176,2120,1250,207,Inactive,> 10,26% NPFF,3160,–,–,–,–,–,–,"Cc1cc(NC(=N)N)nc2ccc(-c3ccccc3)cc12 [Compound 4003, N-(4-methyl-6-phenyl-2-quinolinyl)guanidine]"
153,1210,2580,113,Inactive,> 10,65% NPFF,1530,–,–,–,–,–,–,"COc1ccc2nc(NC(=N)N)cc(C)c2c1 [Compound 4004, N-(6-methoxy-4-methyl-2-quinolinyl)guanidine]"
153,826,871,144,Inactive,> 10,70% NPFF,3160,–,–,–,–,–,–,"Cc1cc(NC(=N)N)nc2ccc3ccccc3c12 [Compound 4009, N-(1-methylbenzo[f]quinolin-3-yl)guanidine]"
132,–,2460,–,Inactive,> 10,78% NPFF,369,–,–,–,–,–,–,"Cc1nc(NC(=N)N)nc2cc(OC(F)(F)F)ccc12 [Compound 1036, N-[4-methyl-7-(trifluoromethoxy)-2-quinazolinyl]guanidine]"
30,460,569,40,41% NPFF,0.157,90% NPFF,259,75% NPFF,1710,Inactive,> 10,–,–,"CCCCCc1ccc2nc(NC(=N)N)cc(C)c2c1 [Compound 5002, N-(4-methyl-6-pentyl-2-quinolinyl)guanidine]"
21,113,203,28,Inactive,> 10,Inactive,> 10000,–,–,–,–,–,–,"CCc1cc(NC(=N)N)nc2cc(C)ccc12 [Compound 6003, N-(4-ethyl-7-methyl-2-quinolinyl)guanidine]"
11,232,308,50,Inactive,> 10,84% NPFF,125,69% NPFF,314,Inactive,> 10,–,–,"CCc1ccc2nc(NC(=N)N)cc(C)c2c1 [Compound 4002, N-(6-ethyl-4-methyl-2-quinolinyl)guanidine]"
